# Target: T1, α5β3γ2 GABAA receptors (Ltk cell membranes) (Homo sapiens, UniProt P18507+P31644)
# T1 construct: membranes
# Experiment: Binding activity of test compounds on GABAAR: inhibition of [3H]Ro15-1788 binding
# Conditions: not given
# In short: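 Membranes from dexamethasone-induced Ltk cells (α5 line: 0.5 μM, 1 day); binding with [3H]Ro15-1788 for 1 h at 4 °C in 50 mM KH2PO4, 1 mM EDTA, 0.2 M KCl, pH 7.4, 0.2 mg/ml α5 protein. Nonspecific binding defined by 10 μM diazepam; filtration, scintillation counting, triplicates.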
# T1 sequence (P31644 32-462): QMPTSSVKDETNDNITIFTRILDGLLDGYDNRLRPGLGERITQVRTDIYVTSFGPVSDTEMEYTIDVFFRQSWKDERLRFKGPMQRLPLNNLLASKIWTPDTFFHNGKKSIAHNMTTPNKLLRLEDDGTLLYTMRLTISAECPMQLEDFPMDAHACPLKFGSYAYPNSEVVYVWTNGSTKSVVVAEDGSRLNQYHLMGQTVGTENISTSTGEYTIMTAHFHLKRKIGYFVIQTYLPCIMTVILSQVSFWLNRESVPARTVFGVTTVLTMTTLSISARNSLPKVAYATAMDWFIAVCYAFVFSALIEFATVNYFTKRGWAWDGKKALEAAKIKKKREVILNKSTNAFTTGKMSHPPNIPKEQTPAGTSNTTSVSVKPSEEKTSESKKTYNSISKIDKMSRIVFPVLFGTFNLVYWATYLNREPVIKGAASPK
# T1 sequence (P28472 26-473 partner): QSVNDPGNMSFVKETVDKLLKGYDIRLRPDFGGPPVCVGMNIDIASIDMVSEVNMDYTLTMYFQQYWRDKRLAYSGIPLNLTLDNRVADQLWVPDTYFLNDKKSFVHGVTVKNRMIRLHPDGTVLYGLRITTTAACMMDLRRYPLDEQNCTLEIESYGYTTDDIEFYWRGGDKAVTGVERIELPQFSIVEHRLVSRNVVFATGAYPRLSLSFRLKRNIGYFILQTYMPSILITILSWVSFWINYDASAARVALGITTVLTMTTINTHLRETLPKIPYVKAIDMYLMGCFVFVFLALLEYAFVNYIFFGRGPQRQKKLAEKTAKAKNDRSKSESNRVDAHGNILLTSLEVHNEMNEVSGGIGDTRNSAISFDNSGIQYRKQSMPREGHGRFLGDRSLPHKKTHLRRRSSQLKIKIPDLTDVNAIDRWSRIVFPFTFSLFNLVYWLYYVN
# T1 sequence (P18507 40-475): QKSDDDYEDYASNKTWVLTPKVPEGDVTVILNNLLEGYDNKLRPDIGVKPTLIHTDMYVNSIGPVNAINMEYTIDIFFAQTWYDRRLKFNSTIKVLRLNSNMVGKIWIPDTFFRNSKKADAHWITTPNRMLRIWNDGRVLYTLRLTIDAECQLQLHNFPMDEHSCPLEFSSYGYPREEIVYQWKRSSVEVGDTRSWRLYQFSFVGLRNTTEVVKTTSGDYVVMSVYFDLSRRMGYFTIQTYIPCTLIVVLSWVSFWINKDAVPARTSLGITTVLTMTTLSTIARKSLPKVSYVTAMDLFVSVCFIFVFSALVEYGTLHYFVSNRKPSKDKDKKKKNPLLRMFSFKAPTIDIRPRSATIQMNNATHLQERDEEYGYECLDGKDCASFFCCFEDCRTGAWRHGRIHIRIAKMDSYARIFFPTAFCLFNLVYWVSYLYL
row,Structure (SMILES),Ki
1,CC(C)OCc1nnc2n1Cc1c(/C=C/c3ccccc3)ncn1-c1ccc(Cl)cc1-2 [Compound 446],> 1000 nM
2,CC(C)OCc1nnc2n1Cc1c(/C=C/c3ccc(F)cc3)ncn1-c1ccc(Cl)cc1-2 [Compound 447],> 1000 nM
3,COCc1nnc2n1Cc1c(-c3nc(C)no3)ncn1-c1cc(Cl)ccc1-2 [Compound 457],> 1000 nM
4,COCc1nnc2n1Cc1c(-c3nc(C)no3)ncn1-c1c(Cl)cccc1-2 [Compound 463],> 1000 nM
5,COCc1nnc2n1Cc1c(-c3ncco3)ncn1-c1c(Cl)cccc1-2 [Compound 466],> 1000 nM

# Same assay, conditions: GABA α5 Binding Ki Values, inhibition of [3H]Ro15-1788 binding; reported as ranges
row,Structure (SMILES),Ki
1,O=C(C#Cc1ncn2c1Cc1cnnn1-c1cc(Cl)ccc1-2)c1ccccc1 [Compound 448],< 100 nM
2,C#Cc1ncn2c1C(Cc1ccccc1)c1cnnn1-c1cc(OC)ccc1-2 (stereo not drawn) [Compound 449],> 1000 nM
3,C#Cc1ncn2c1C(Cc1cccc(F)c1)(Cc1cccc(F)c1)c1cnnn1-c1cc(OC)ccc1-2 [Compound 450],> 1000 nM
4,C#Cc1ncn2c1C(Cc1ccccc1F)c1cnnn1-c1cc(OC)ccc1-2 (stereo not drawn) [Compound 451],< 100 nM
5,Clc1ccc2c(c1)-n1nncc1Cc1c(Br)ncn1-2 [Compound 452],< 100 nM
6,CC(C)C#Cc1ccc2c(c1)-n1nncc1Cc1c(C#CC(C)C)ncn1-2 [Compound 453],100 to 1000 nM
7,CC(C)C#Cc1ccc2c(c1)-n1nncc1Cc1c(Br)ncn1-2 [Compound 454],< 100 nM
8,COCc1nnc2n1Cc1c(C#CC(=O)c3ccccc3)ncn1-c1ccc(Cl)cc1-2 [Compound 455],< 100 nM
9,COCc1nnc2n1Cc1c(-c3nc(C)no3)ncn1-c1ccc(OC(F)(F)F)cc1-2 [Compound 456],< 100 nM
10,COCc1nnc2n1Cc1c(-c3nc(C)no3)ncn1-c1ccc(C(F)(F)F)cc1-2 [Compound 459],< 100 nM
11,COCc1nnc2n1Cc1c(C3=NCCO3)ncn1-c1ccc(OC(F)(F)F)cc1-2 [Compound 460],100 to 1000 nM
12,COCc1nnc2n1Cc1c(-c3nc(C)no3)ncn1-c1ccc(Br)cc1-2 [Compound 461],< 100 nM
13,COCc1nnc2n1Cc1c(-c3nc(C)no3)ncn1-c1ccc(-c3ccccc3)cc1-2 [Compound 462],< 100 nM
14,COCc1nnc2n1Cc1c(-c3nc(C)no3)ncn1-c1ccc(C#N)cc1-2 [Compound 465],< 100 nM
15,COCc1nnc2n1Cc1c(-c3ncco3)ncn1-c1ccc(OC(F)(F)F)cc1-2 [Compound 467],< 100 nM
16,COCc1nnc2n1Cc1c(-c3nc(C)no3)ncn1-c1ccc(-c3cccnc3)cc1-2 [Compound 469],100 to 1000 nM
17,COCc1nnc2n1Cc1c(C3=NCCO3)ncn1-c1ccc(C(F)(F)F)cc1-2 [Compound 470],100 to 1000 nM
18,COCc1nnc2n1Cc1c(-c3ncco3)ncn1-c1ccc(C(F)(F)F)cc1-2 [Compound 471],< 100 nM

# Same assay, conditions: inhibition of [3H]Ro15-1788 binding; reported as ranges
row,Structure (SMILES),Ki
1,COCc1nnc2n1Cc1c(COCc3cccc(F)c3)ncn1-c1ccc(Cl)cc1-2 [Compound 432],> 1000 nM
2,COCc1nnc2n1Cc1c(COc3ccccc3F)ncn1-c1ccc(Cl)cc1-2 [Compound 433],> 1000 nM
3,COCc1nnc2n1Cc1c(COc3cccc(F)c3)ncn1-c1ccc(Cl)cc1-2 [Compound 434],> 1000 nM
4,COCc1nnc2n1Cc1c(COc3ccc(F)cc3)ncn1-c1ccc(Cl)cc1-2 [Compound 435],> 1000 nM

# Target: T2, GABAA α5 receptor (Rattus norvegicus, UniProt P18508+P19969)
# T2 construct: from tissue
# Experiment: GABAA α5 receptor occupancy with Ro 15-4513 tracer, hippocampus vs cerebellum
# Assay type: in vivo, Long Evans rats
# Conditions: 0.01-10 mg/kg, i.v.
# Description: Food and water were available ad libitum.
# The (100 μl) supernatant solution was diluted by […] of sterile water (pH 6.5).
# T2 sequence (P19969 32-464 limits assumed): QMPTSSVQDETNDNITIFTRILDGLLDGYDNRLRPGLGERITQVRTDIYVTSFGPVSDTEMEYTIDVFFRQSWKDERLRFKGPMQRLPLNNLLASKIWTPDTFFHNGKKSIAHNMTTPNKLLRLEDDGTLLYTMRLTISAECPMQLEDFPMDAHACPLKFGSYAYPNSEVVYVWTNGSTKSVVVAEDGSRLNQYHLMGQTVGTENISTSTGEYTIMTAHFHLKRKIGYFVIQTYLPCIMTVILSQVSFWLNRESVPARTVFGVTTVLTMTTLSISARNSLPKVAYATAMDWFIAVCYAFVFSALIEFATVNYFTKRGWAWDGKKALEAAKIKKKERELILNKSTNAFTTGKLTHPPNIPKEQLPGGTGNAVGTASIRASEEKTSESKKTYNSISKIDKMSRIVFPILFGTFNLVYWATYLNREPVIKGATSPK
# T2 sequence (P18508 39-466): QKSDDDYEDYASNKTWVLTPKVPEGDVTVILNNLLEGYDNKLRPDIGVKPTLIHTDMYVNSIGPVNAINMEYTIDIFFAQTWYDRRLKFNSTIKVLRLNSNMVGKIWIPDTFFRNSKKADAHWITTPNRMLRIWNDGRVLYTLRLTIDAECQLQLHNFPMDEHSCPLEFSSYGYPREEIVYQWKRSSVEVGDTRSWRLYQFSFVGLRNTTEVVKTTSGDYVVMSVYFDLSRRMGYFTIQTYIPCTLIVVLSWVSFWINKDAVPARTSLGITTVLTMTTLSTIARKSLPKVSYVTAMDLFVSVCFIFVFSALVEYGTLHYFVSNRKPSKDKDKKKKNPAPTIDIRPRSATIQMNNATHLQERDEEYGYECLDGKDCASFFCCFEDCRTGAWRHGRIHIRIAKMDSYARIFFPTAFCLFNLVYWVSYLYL
Structure (SMILES),Ro 15-4513 binding in hippocampus,cerebellum levels (binding) of Ro 15-4513
"CCOC(=O)c1ncn2c1Cn1c(C)nnc1-c1cc(OC)ccc1-2 [Ethyl 3-methoxy-7-methyl-9H-benzo[f]imidazo[1,5-a][1,2,4]tri]",blocked,did not affect

# Same assay, conditions: tracer 1 μg/kg, i.v., after vehicle
row,Structure (SMILES),Ro 15-4513 level in hippocampus compared with cerebellum
1,CCOC(=O)c1ncn2c1CN(C)C(=O)c1cc(N=[N+]=[N-])ccc1-2 [Ro 15-4513],> 5 fold

# From patent publication US20180170941A1 (priority 2016, published 2018)
